Test results reported in patent US6833372B2, “Non-peptide GnRH agents, Pharmaceutical compositions, and methods for their use” (Pfizer, Inc., priority 2002, dated 2004).

Target: T1, human GnRH receptors (Homo sapiens, UniProt P30968)
T1 construct: expressed in transfected cells; host or cells: HEK 293 cells, stably transfected; membranes
T1 sequence (P30968 1-328): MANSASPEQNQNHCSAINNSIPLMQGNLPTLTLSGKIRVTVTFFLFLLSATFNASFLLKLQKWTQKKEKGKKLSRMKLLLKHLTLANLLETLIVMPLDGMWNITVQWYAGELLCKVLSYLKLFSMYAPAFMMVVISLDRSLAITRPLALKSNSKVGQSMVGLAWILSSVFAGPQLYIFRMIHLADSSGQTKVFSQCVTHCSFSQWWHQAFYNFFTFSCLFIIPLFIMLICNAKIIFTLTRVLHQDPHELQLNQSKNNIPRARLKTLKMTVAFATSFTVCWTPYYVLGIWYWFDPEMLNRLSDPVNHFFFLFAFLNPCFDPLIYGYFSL
Assay: Radioligand binding: inhibition of 125I-GnRH-A binding to human GnRH receptor membranes
Details: HEK 293 cell membranes
Description: HEK 293 cells stably transfected with mouse or human GnRH receptors as described above were grown in Dulbecco's high-glucose, modified Eagle's medium (DMEM) supplemented with 0.2% G418, 10% fetal bovine serum (FBS) and 100 U/mL penicillin/streptomycin. GH3 cells stably transfected with the rat GnRH receptor (GGH3) were provided by Dr. William Chin (Harvard Medical School, Boston, Mass.). These cells have been extensively characterized previously (Kaiser et al., 1997). The cells were grown in low glucose DMEM containing: 100U/mL penicillin/streptomycin, 0.6% G418 and 10% heat-inactivated FBS.
HEK 293 cells containing mouse or human receptors, or rat pituitaries (Pel Freez Biologicals, Rogers, Ark.) were homogenized in buffer A containing: 50 mM Tris (pH 7.4), 0.32 M sucrose, 2 mM EGTA, 1 mM PMSF, 5 μg/ml aprotinen, 5 μg/ml Pepstatin A, and 1 μg/ml leupeptin. Homogenized cells were centrifuged at 4° C. at 20,000×g for 25 minutes, re-suspended in buffer A and re-centrifuged at 4° C. at 20,000×g for an additional 25 minutes. Total membrane protein was determined with a BCA kit (Pierce, Rockford, Ill.). Membranes were stored at −70° C. at a final membrane protein concentration of approximately 5 mg/ml.
The radioiodinated agonist analog of GnRH, [des-Gly^10,D-Ala^6]GnRH ethylamide (^125I-GnRH-A), was used as the radioligand. […] The reaction mixture was vortexed and incubated for 1 minute at room temperature. After one minute, the mixture was vortexed and allowed to incubate for an additional minute. 2 ml of 0.5 M acetic acid/1% BSA was added to the reaction tube and the mixture was added to a C18 Sep-Pak cartridge. The cartridge was washed with subsequent washes of 5 ml H2O and 5 ml 0.5 M acetic acid and then eluted with 5×1 ml of 60% CH3CN/40% 0.5 M acetic acid. The eluate was diluted with 3× volume of HPLC buffer A (0.1% TFA in H2O) and loaded onto a C18 column. The iodinated product was eluted over 20-25 min with a gradient of 25-100% CH3CN containing 0.1% TFA. The radioactive fractions (750 μl/fraction) were collected into clean polypropylene tubes containing 100 μl of 10% BSA. Fractions were assessed for biological activity by radioligand binding. Specific activity of the radioligand was approximately 2200 Ci/mmol.
Membranes were diluted to 0.01-0.5 mg/ml (depending upon the species of receptor) with assay buffer containing 50 mM HEPES (pH 7.4), 1 mM EDTA, 2.5 mM MgCl2, and 0.1% BSA. Membranes (diluted to utilize similar receptor numbers between assays) were incubated with approximately 0.04-0.06 nM ^125I-GnRH-A in the presence or absence of competing agents (0.1-10,000 nM) in a total volume of 200 μl in 96-well polypropylene plates for 1 hour at room temperature. Assays were stopped by rapid filtration onto 96-well GF/C filters soaked in 0.1% polyethylenimine (PEI) utilizing a Packard 96-well cell harvester. Filters were washed three times with ice-cold PBS (50 mM NaPO4, 0.9% NaCl, 2 mM MgCl2, and 0.02% NaN3, pH 7.4). 35 μl of scintillation cocktail was added to each filter well and filters were counted on a Packard Topcount. Control dose-response curves were generated to GnRH (0.1 nM-100 nM) in each competition binding experiment. Ki values were calculated from IC50 values according to Cheng et al., Biochemical Pharmacol. 22: 3099-3108, 1973. [formula]

Row | Ki | Structure (SMILES)
1 | 46 nM | COc1nc(NC2CCN(Cc3ccccc3)CC2)nc(OC)c1NC(=O)c1ccc(Cc2cc3c(cc2C)C(C)(C)OC3(C)C)o1 [Example D33, N-{2-[(1-Benzylpiperidin-4-yl)amino]-4,6-dimethoxypyrimidin-5-yl}-5-[(1,1,3,3,6-pentamethyl-1,3-dihydro-2-benzofuran-5-yl)methyl]-2-furamide]
2 | 460 nM | C=C(C)CN(Cc1ccco1)c1nc(OC)c(NC(=O)c2ccc(Cc3cc4c(cc3C)C(C)(C)OC4(C)C)o2)c(OC)n1 [Example D25, N-{2-[(2-Furylmethyl)(2-methylprop-2-enyl)amino]-4,6-dimethoxypyrimidin-5-yl}-5-[(1,1,3,3,6-pentamethyl-1,3-dihydro-2-benzofuran-5-yl)methyl]-2-furamide]
3 | 6.7 nM | COc1nc(NCCc2ccccn2)nc(OC)c1NC(=O)c1ccc(Cc2cc3c(cc2C)C(C)(C)OC3(C)C)o1 [Example D65, N-{4,6-Dimethoxy-2-[(2-pyridin-2-ylethyl)amino]pyrimidin-5-yl}-5-[(1,1,3,3,6-pentamethyl-1,3-dihydro-2-benzofuran-5-yl)methyl]-2-furamide]
4 | 87 nM | COc1nc(NCc2ccc(C(F)(F)F)nc2)nc(OC)c1NC(=O)c1ccc(Cc2cc3c(cc2C)C(C)(C)OC3(C)C)o1 [Example D36, N-[4,6-Dimethoxy-2-({[6-(trifluoromethyl)pyridin-3-yl]-methyl}amino)pyrimidin-5-yl]-5-[(1,1,3,3,6-pentamethyl-1,3-dihydro-2-benzofuran-5-yl)methyl]-2-furamide]
5 | 160 nM | COc1nc(N2CCN(c3ccccc3F)CC2)nc(OC)c1NC(=O)c1ccc(Cc2cc3c(cc2C)C(C)(C)OC3(C)C)o1 [Example D43, N-{2-[4-(2-Fluorophenyl)piperazin-1-yl]-4,6-dimethoxypyrimidin-5-yl}-5-[(1,1,3,3,6-pentamethyl-1,3-dihydro-2-benzofuran-5-yl)methyl]-2-furamide]
6 | 1.8 nM | COc1nc(NCCCN2CCN(C)CC2)nc(OC)c1NC(=O)c1ccc(Cc2cc3c(cc2C)C(C)(C)OC3(C)C)o1 [Example D63, N-(4,6-Dimethoxy-2-{[3-(4-methylpiperazin-1-yl)propyl]amino}pyrimidin-5-yl)-5-[(1,1,3,3,6-pentamethyl-1,3-dihydro-2-benzofuran-5-yl)methyl]-2-furamide]
7 | 30 nM | COc1nc(NCc2ccccc2Br)nc(OC)c1NC(=O)c1ccc(Cc2cc3c(cc2C)C(C)(C)OC3(C)C)o1 [Example D28, N-{2-[(2-Bromobenzyl)amino]-4,6-dimethoxypyrimidin-5-yl}-5-[(1,1,3,3,6-pentamethyl-1,3-dihydro-2-benzofuran-5-yl)methyl]-2-furamide]
8 | 21 nM | COc1nc(N[C@H](CO)Cc2c[nH]c3ccccc23)nc(OC)c1NC(=O)c1ccc(Cc2cc3c(cc2C)C(C)(C)OC3(C)C)o1 [Example D64, N-(2-{[(1S)-2-Hydroxy-1-(1H-indol-3-ylmethyl)ethyl]amino}-4,6-dimethoxypyrimidin-5-yl)-5-[(1,1,3,3,6-pentamethyl-1,3-dihydro-2-benzofuran-5-yl)methyl]-2-furamide]
9 | 160 nM | COc1nc(NCc2ccc(-c3ccccc3)cc2)nc(OC)c1NC(=O)c1ccc(Cc2cc3c(cc2C)C(C)(C)OC3(C)C)o1 [Example D55, N-{2-[(1,1′-Biphenyl-4-ylmethyl)amino]-4,6-dimethoxypyrimidin-5-yl}-5-[(1,1,3,3,6-pentamethyl-1,3-dihydro-2-benzofuran-5-yl)methyl]-2-furamide]
10 | 5.1 nM | COc1nc(NCCc2ccncc2)nc(OC)c1NC(=O)c1ccc(Cc2cc3c(cc2C)C(C)(C)OC3(C)C)o1 [Example D66, N-{4,6-Dimethoxy-2-[(2-pyridin-4-ylethyl)amino]pyrimidin-5-yl}-5-[(1,1,3,3,6-pentamethyl-1,3-dihydro-2-benzofuran-5-yl)methyl]-2-furamide]

Further lines, the compound ahead of its results:

Row | Structure (SMILES) | Ki
11 | COc1nc(NCCCN(C)C)nc(OC)c1NC(=O)c1ccc(Cc2cc3c(cc2C)C(C)(C)CC3(C)C)o1 [Example J1, N-(2-{[3-(dimethylamino)propyl]amino}-4,6-dimethoxypyrimidin-5-yl)-5-[(1,1,3,3,6-pentamethyl-2,3-dihydro-1H-inden-5-yl)methyl]-2-furamide] | 0.2 nM
12 | COc1nc(N2CCN(CC(=O)N(C)C)CC2)nc(OC)c1NC(=O)c1ccc(Cc2cc3c(cc2C)C(C)(C)OC3(C)C)o1 [Example D30, N-(2-{4-[2-(Dimethylamino)-2-oxoethyl]piperazin-1-yl}4,6-dimethoxypyrimidin-5-yl)-5-[(1,1,3,3,6-pentamethyl-1,3-dihydro-2-benzofuran-5-yl)methyl]-2-furamide] | 46 nM
13 | COc1nc(NCCCN2CCOCC2)nc(OC)c1NC(=O)c1ccc(Cc2c(C)cc3c(c2C)C(C)(C)CO3)o1 [Example H1, N-{4,6-Dimethoxy-2-[(3-morpholin-4-ylpropyl)amino]-pyrimidin-5-yl}-5-[(3,3,4,6-tetramethyl-2,3-dihydro-1-benzofuran-5-yl)methyl]-2-furamide] | 50 nM
14 | COc1nc(N2CCN(c3ccc(Cl)cc3)CC2)nc(OC)c1NC(=O)c1ccc(Cc2cc3c(cc2C)C(C)(C)OC3(C)C)o1 [Example D62, N-{2-[4-(4-Chlorophenyl)piperazin-1-yl]-4,6-dimethoxypyrimidin-5-yl}-5-[(1,1,3,3,6-pentamethyl-1,3-dihydro-2-benzofuran-5-yl)methyl]-2-furamide] | 120 nM
15 | COc1nc(N2CCN(Cc3ccncc3)CC2)nc(OC)c1NC(=O)c1ccc(Cc2cc3c(cc2C)C(C)(C)OC3(C)C)o1 [Example D54, N-{4,6-Dimethoxy-2-[4-(pyridin-4-ylmethyl)piperazin-1-yl]pyrimidin-5-yl}-5-[(1,1,3,3,6-pentamethyl-1,3-dihydro-2-benzofuran-5-yl)methyl]-2-furamide] | 150 nM
16 | COc1nc(NCCCN(C)C)nc(OC)c1NC(=O)c1ccc(Cc2c(C)cc3c(c2C)C(C)(C)CO3)o1 [Example H3, N-(2-{[3-(Dimethylamino)propyl]amino}-4,6-dimethoxypyrimidin-5-yl)-5-[(3,3,4,6-tetramethyl-2,3-dihydro-1-benzofuran-5-yl)methyl]-2-furamide] | 46 nM
17 | CCc1ccc(CN(CCCO)c2nc(OC)c(NC(=O)c3ccc(Cc4cc5c(cc4C)C(C)(C)OC5(C)C)o3)c(OC)n2)cc1 [Example D48, N-{2-[(4-Ethylbenzyl)(3-hydroxypropyl)amino]-4,6-dimethoxypyrimidin-5-yl}-5-[(1,1,3,3,6-pentamethyl-1,3-dihydro-2-benzofuran-5-yl)methyl]-2-furamide] | 240 nM
18 | COc1nc(N2CCN(c3cc(C(F)(F)F)nc4ccccc34)CC2)nc(OC)c1NC(=O)c1ccc(Cc2cc3c(cc2C)C(C)(C)OC3(C)C)o1 [Example D61, N-(4,6-dimethoxy-2-{4-[2-(trinfluoromethyl)quinolin-4-yl]piperazin-1-yl}pyrimidin-5-yl)-5-[(1,1,3,3,6-pentamethyl-1,3-dihydro-2-benzofuran-5-yl)methyl]-2-furamide] | 500 nM
19 | CCCCN(CCC#N)c1nc(OC)c(NC(=O)c2ccc(Cc3cc4c(cc3C)C(C)(C)OC4(C)C)o2)c(OC)n1 [Example D37, N-{2-[Butyl(2-cyanoethyl)amino]-4,6-dimethoxypyrimidin-5-yl}-5-[(1,1,3,3,6-pentamethyl-1,3-dihydro-2-benzofuran-5-yl)methyl]-2-furamide] | 41 nM
